This is an account of results in US7838553B2, “Benzopyran derivatives as potassium channel openers” (Janssen Pharmaceutica NV, priority 2005, dated 2010).

Broadly, the EC50 is the concentration giving half of the maximal effect.

T1 sequence (O60706 1-1549 isoform O60706-2): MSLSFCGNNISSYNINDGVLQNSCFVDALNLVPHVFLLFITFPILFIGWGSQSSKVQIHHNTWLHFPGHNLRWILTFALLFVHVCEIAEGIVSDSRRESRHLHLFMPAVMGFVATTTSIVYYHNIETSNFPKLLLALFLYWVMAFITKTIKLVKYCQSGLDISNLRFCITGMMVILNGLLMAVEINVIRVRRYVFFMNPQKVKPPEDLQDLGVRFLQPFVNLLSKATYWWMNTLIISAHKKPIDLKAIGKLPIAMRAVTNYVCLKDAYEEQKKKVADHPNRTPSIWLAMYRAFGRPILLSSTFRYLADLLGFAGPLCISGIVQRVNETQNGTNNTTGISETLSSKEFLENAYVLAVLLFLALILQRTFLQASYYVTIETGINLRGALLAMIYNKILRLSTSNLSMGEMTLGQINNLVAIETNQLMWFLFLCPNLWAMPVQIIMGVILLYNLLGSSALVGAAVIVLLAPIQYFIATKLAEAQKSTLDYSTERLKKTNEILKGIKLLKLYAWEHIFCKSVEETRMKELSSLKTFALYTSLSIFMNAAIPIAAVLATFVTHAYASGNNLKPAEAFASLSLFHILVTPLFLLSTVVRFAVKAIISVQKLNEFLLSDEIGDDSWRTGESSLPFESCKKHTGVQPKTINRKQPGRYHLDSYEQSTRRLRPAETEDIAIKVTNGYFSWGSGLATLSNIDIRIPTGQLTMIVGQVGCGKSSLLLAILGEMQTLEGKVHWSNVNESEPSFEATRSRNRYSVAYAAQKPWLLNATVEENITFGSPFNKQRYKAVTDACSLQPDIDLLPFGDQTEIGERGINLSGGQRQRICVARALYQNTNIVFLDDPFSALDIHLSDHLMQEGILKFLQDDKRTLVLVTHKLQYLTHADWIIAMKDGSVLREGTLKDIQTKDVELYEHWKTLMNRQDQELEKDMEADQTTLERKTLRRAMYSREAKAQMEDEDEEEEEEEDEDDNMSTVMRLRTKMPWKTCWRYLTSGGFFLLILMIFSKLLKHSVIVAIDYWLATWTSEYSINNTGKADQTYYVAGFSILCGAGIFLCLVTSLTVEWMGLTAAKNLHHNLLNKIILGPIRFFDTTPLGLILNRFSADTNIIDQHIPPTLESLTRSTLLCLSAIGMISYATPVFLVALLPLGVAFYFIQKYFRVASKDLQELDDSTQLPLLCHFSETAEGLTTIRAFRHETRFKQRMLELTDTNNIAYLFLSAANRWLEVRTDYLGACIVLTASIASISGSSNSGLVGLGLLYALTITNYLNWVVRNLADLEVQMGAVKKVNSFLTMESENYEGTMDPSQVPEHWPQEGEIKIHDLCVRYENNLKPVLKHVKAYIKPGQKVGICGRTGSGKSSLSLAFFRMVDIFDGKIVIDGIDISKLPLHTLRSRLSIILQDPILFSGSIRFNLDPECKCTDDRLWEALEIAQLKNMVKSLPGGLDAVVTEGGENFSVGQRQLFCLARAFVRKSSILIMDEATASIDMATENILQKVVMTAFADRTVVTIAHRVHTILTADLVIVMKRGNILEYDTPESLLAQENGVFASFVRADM
T1 sequence (Q14654 whole entry): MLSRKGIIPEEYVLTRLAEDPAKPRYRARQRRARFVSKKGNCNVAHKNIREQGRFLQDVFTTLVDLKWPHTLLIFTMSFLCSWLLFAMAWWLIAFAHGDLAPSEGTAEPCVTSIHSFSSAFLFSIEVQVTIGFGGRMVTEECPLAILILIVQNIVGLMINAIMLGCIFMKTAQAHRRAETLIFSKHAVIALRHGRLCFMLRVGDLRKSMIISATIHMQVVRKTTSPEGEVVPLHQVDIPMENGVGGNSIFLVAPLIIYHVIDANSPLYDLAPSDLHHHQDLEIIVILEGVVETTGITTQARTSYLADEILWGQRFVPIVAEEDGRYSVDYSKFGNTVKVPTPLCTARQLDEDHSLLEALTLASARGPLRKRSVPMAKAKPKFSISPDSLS

This assay has as its target T1, KATP channels (Homo sapiens, UniProt O60706+Q14654).
T1 construct: TE671 human medulloblastoma cells were obtained from ATCC; host or cells: TE671 human medulloblastoma cells
The experiment in a line: Potassium Channel Assay (FLIPR membrane potential). The format is cell-based. Particulars: TE671 human medulloblastoma cells, Membrane Potential Assay Dye, room temperature, hyperpolarization from KATP channel opening. The procedure:
TE671 human medulloblastoma cells were obtained from ATCC and grown in Dulbecco's modified Eagle's medium (DMEM) supplemented with 10% fetal bovine serum, 100 U/ml penicillin and […].
The day before testing, the cells were plated in black 96-well plates at 50 K/well. On the day of testing, the growth media was removed, then 100 μl of FLIPR buffer (20 mM HEPES, 120 mM NaCl, 2 mM KCl, 2 mM CaCl2, 1 mM MgCl2, 5 mM Glucose) and 100 μl of Membrane Potential Assay Dye (Molecular Devices) dissolved in FLIPR buffer were added to each well. The cells were incubated at room temperature for 15 to 30 min.
The effect of test compounds on KATP channels were evaluated on a fluorometric imaging plate reader (FLIPR, Molecular Devices) at room temperature. After a baseline period, 50 μl of 5× stock solution of test compound prepared in FLIPR buffer was added and fluorescent change was monitored for 3 minutes. After this reading, glyburide, a KATP channel blocker, was added to a final concentration of 5 μM to check the specificity of the test compound as a KATP channel openers. Hyperpolarization resulting from KATP channel opening was observed as a decrease in fluorescent intensity.
Representative compounds of the present invention were tested according to the procedure described above, with results as listed in Table 7, below.
For `CC1(C)Oc2ccc(S(=O)(=O)c3ccccc3)cc2[C@@H](Oc2noc3ccc(Cl)cc23)[C@@H]1O` [Compound 75, (3S,4R)-6-Benzenesulfonyl-4R-(5-chloro-benzo[d]isoxazol-3-yloxy)-2,2-dimethyl-chroman-3S-ol], the EC50 was over 30 µM. The molecule `CC1(C)Oc2ccc(C#N)cc2[C@@H](Sc2ncc[nH]2)[C@@H]1O` [Compound 25, (3S,4R)-3-Hydroxy-4-(2H-imidazol-2-ylsulfanyl)-2,2-dimethyl-chroman-6-carbonitrile] returned an EC50 of 0.84 µM. With `CC1(C)Oc2ccncc2[C@@H](n2c(=O)ccn2-c2ccc(Cl)cc2)[C@@H]1O` (racemic) [Compound 110, 1-(4-Chloro-phenyl)-2-(3-hydroxy-2,2-dimethyl-3,4-dihydro-2H-pyrano[32-c]pyridin-4-yl)-1,2-dihydro-pyrazol-3-one], the EC50 was over 30 µM.
